Consider 2 molecules from patent publication US20110197288A1, “Transgenic animal for screening of compounds that modulate cell proliferation, and its use in the pharmaceutical field” (priority 2009, published 2011).

The test system of series [1] is skin of transgenic mouse (luciferase reporter under CYCB2 promoter). The experiment in a line: skin light emission imaging after cutaneous application of carcinogen to transgenic mouse. The conditions noted are these: 0.24% DMBA solution in acetone on skin, day 7 relative to day 0; FIG. 9.
Procedure: To evaluate this application, the skin of a transgenic mouse according to the invention was treated with DMBA, a carcinogen, and the stimulation of light emission was measured for the carcinogen-treated side compared to the side treated with vehicle alone.
In particular, a 0.24% DMBA solution in acetone was applied to the skin of transgenic individuals according to the invention. One week later (day 7 relative to day 0) the amount of luciferase produced was detected by measuring the light emission produced by the skin of the animals.
In series [2] the test system is bone marrow cells. The experiment in a line: cell cycle phase analysis of bone marrow cells by FACS with propidium iodide staining. The conditions noted are these: bone marrow cells from 5FU treated mice, vehicle 11.2%, FIG. 8B. The format is in vivo, mouse. The procedure: (§1) As an example of application for development of anti-proliferative drugs, heterozygous individuals of the transgenic mouse line according to the invention were treated as follows: a first group was treated with 150 ug/kg 5-fluorouracil (5FU), a well-known chemotherapeutic agent, while another group was treated with saline as control (vehicle) for 2 and 5 days.
Cells were fixed with methanol acetone 4:1, stained with 0.1 mg/ml propidium iodide, a DNA fluorescent marker, and then subjected to FACS analysis.

The subject of series [3] is bone marrow cells. The experiment in a line: luciferase expression (RLU per microgram protein) in bone marrow cells of treated transgenic mice. The conditions noted are these: 5 day 5FU treatment, FIG. 8A. Type of series: in vivo, mouse. The method, then: To assess the expression of luciferase in proliferating progenitor cells, bone marrow cells, that are highly enriched in hematopoietic precursors, were collected by flushing the femurs with culture medium and enzyme activity was analyzed in protein extracts (Ciana et al 2001), as shown in the graph in FIG. 3A.
as §1

The test system of series [4] is cell proliferation (luciferase reporter under CYCB2 promoter) in tissues. The experiment in a line: luciferase activity in tissue protein extracts of treated CYCB2-luciferase transgenic mice. Type of series: in vivo, mouse. To be noted: 150 ug/kg 5FU, 2 and 5 days, all tissues analysed, versus saline vehicle; FIG. 7. The method, then:
For this purpose, organs were homogenized in lysis buffer and lysates were subjected to three cycles of freezing and thawing. Proteins were separated from DNA and lysosomes by centrifugation (13000×g for 30 min). After determining the protein concentration of the extract, the biochemical assay of luciferase activity was carried out by measuring luminescence emission with a luminometer. The relative luminescence units (RLU) determined during a measurement of 10 seconds were then expressed on the Y axis as RLU values per microgram protein. The results according to the graph in FIG. 2C indicate that, in the adult animal, light emission is restricted to organs characterized by basal homeostatic proliferation such as spleen, bone marrow, femur and sternum, or sites of active tissue remodeling in the mouse, such as joints of the feet, jaw, etc.
as §1
Mice were sacrificed and luciferase activity was evaluated in tissue protein extracts, as reported in the graph in FIG. 7.

Turning to `Cc1c2ccccc2c(C)c2c1ccc1ccccc12` [DMBA, 7,12-dimethylbenz(a)anthracene], the “induction of luciferase activity (light emission) versus region treated with vehicle alone” value in series [1] was 12.5 fold.

`O=c1[nH]cc(F)c(=O)[nH]1` [5FU, 5-fluorouracil]: the S phase cells with bone marrow cells [2] worked out at 1.97%. For the same molecule, the “luciferase expression in bone marrow cells” value in the series with bone marrow cells [3] is “reduced luciferase expression”. Besides, the “luciferase activity in tissue protein extracts” value in series [4] is recorded as “Reduced luciferase activity, until levels that were undetectable”.
